Laboratory results reported in patent EP4667483A1, “HUMAN TRANSFERRIN RECEPTOR-BINDING PEPTIDE” (JCR Pharmaceuticals Co., Ltd., priority 2023, dated 2024).
pKd: −log10 of the molar value. Numbered stars: 1 amine (or outer) side, 2 acyl side, 3 side chain; on linkers, the order of the positions; unused ones are H or OH. Bridge positions count the residues as written; N and C are the ends. Square brackets hold non-standard residues; d marks the D form. Side chains are listed from the residue outwards. Peptide text beside a SMILES is read from it. * marks the point of attachment. NH(1-deoxy-D-glucityl) = OC[C@@H](O)[C@@H](O)[C@H](O)[C@@H](O)CN*; Trp(1-CH2COOH) = N[C@@H](Cc1cn(CC(=O)O)c2ccccc12)C(=O)O; CH2CON(CH2CH2)2NCH2COOH = O=C(O)CN1CCN(C(=O)C*)CC1; Nle(6-morpholino) = N[C@@H](CCCCN1CCOCC1)C(=O)O; Phe(3-COOH) = N[C@@H](Cc1cccc(C(=O)O)c1)C(=O)O; Trp(7-aza) = N[C@@H](Cc1c[nH]c2ncccc12)C(=O)O; NH(CH2CH2O)8Me = COCCOCCOCCOCCOCCOCCOCCOCCN*; NMePhe(3-Cl) = CN[C@@H](Cc1cccc(Cl)c1)C(=O)O; Piperazinyl(4-CH2COOH) = O=C(O)CN1CCN(*)CC1; 3Pal(6-NH2) = Nc1ccc(C[C@H](N)C(=O)O)cn1; NMeY = CN[C@@H](Cc1ccc(O)cc1)C(=O)O; 4Pal = N[C@@H](Cc1ccncc1)C(=O)O; PEG4 = NCCOCCOCCOCCOCCC(=O)O; CO = O=C([*:1])[*:2]

Key:
[1] = molecular target: T1, human transferrin receptor (hTfR) (Homo sapiens, UniProt P02786); experiment: SPR measurement under pH 6.0 conditions (Biacore T200, NTA chip, immobilized hTfR); type: binding; conditions: pH 6.0, single-cycle kinetics; read-out: hTfR SPR pH6.0 KD
[2] = molecular target: T1, human transferrin receptor (hTfR); experiment: SPR measurement under pH 7.4 conditions (Biacore T200, CM3 chip, hTfR captured by His Tag antibody); type: binding; conditions: pH 7.4, single-cycle kinetics; read-out: hTfR SPR pH7.4 KD

T1 sequence (P02786 whole entry): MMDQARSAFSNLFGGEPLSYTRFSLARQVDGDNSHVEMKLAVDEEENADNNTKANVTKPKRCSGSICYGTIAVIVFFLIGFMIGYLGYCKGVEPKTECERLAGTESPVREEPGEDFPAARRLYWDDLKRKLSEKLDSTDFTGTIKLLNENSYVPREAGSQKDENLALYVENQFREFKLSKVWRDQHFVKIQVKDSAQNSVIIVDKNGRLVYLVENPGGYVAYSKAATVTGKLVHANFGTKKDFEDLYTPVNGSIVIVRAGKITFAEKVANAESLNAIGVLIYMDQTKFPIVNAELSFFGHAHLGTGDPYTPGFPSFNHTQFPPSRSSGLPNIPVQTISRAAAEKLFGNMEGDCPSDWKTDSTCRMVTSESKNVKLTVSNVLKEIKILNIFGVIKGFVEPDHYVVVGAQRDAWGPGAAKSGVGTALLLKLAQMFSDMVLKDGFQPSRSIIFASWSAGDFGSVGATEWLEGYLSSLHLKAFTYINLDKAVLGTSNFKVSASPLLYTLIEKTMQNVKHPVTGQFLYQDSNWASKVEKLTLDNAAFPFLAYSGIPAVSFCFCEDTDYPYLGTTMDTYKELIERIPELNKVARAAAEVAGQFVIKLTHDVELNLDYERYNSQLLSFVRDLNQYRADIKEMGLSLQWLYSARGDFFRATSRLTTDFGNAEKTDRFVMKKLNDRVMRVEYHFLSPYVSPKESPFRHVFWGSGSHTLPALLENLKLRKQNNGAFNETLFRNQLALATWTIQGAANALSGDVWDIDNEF

Row | pKd [1] | pKd [2] | SMILES
1 | 7.52 | 8.73 | CC[C@H](C)[C@@H]1NC(=O)[C@H](Cc2ccc(OCC(=O)N3CCN(CC(=O)O)CC3)cc2)NC(=O)[C@H](Cc2ccc(O)cc2)NC(=O)[C@H](CC(N)=O)NC(=O)[C@H](Cc2c[nH]c3ncccc23)NC(=O)[C@H](C(C)C)NC(=O)[C@H](Cc2cccc(Cl)c2)N(C)C(=O)[C@H](C(C)C)NC(=O)[C@H](C)NC(=O)CSC[C@@H](C(=O)NCCOCCOCCOCCOCCC(N)=O)NC(=O)[C@H](Cc2ccc(O)cc2)N(C)C(=O)[C@H](Cc2ccncc2)NC(=O)[C@H](CCCNC(=N)N)NC(=O)[C@H](CCCCNC(=O)N2CCN(CC(=O)O)CC2)NC(=O)[C@H]([C@@H](C)CC)NC1=O [compound 18]
2 | 8.10 | 8.32 | CC[C@H](C)[C@@H]1NC(=O)[C@H](Cc2ccc(OCC(=O)N3CCN(CC(=O)O)CC3)cc2)NC(=O)[C@H](Cc2ccc(O)cc2)NC(=O)[C@H](CC(N)=O)NC(=O)[C@H](Cc2c[nH]c3ncccc23)NC(=O)[C@H](C(C)C)NC(=O)[C@H](Cc2cccc(Cl)c2)N(C)C(=O)[C@H](C(C)C)NC(=O)[C@H](C)NC(=O)CSC[C@@H](C(=O)NCCOCCOCCOCCOCCC(N)=O)NC(=O)[C@H](Cc2ccc(O)cc2)N(C)C(=O)[C@H](Cc2ccncc2)NC(=O)[C@H](CCCCN2CCOCC2)NC(=O)[C@H](CCCCNC(=O)N2CCN(CC(=O)O)CC2)NC(=O)[C@H]([C@@H](C)CC)NC1=O [compound 19] ({CH2CO}-AV[NMePhe(3-Cl)]V[Trp(7-aza)]NYY(CH2CON(CH2CH2)2NCH2COOH)IIK([CO-Piperazinyl(4-CH2COOH)])[Nle(6-morpholino)][4Pal][NMeY]C[PEG4]-NH2; thioether N-15)
3 | 7.38 | 8.39 | CC[C@H](C)[C@@H]1NC(=O)[C@H](Cc2ccc(OC)cc2)NC(=O)[C@H](Cc2ccc(N)nc2)NC(=O)[C@H](CC(N)=O)NC(=O)[C@H](Cc2c[nH]c3ncccc23)NC(=O)[C@H](C(C)C)NC(=O)[C@H](Cc2cccc(Cl)c2)N(C)C(=O)[C@H](C(C)C)NC(=O)[C@H](C)NC(=O)CSC[C@@H](C(=O)NCCOCCOCCOCCOCCC(N)=O)NC(=O)[C@H](Cc2ccc(O)cc2)N(C)C(=O)[C@H](Cc2ccncc2)NC(=O)[C@H](CCCCN2CCOCC2)NC(=O)[C@H](CCC(=O)NC[C@H](O)[C@@H](O)[C@H](O)[C@H](O)CO)NC(=O)[C@H]([C@@H](C)CC)NC1=O [compound 20] ({CH2CO}-AV[NMePhe(3-Cl)]V[Trp(7-aza)]N[3Pal(6-NH2)]Y(Me)IIE(NH(1-deoxy-D-glucityl))[Nle(6-morpholino)][4Pal][NMeY]C[PEG4]-NH2; thioether N-15)
4 | 7.00 | 8.27 | CC[C@H](C)[C@@H]1NC(=O)[C@H](Cc2ccc(OCC(=O)N3CCN(CC(=O)O)CC3)cc2)NC(=O)[C@H](Cc2ccc(O)cc2)NC(=O)[C@H](CC(N)=O)NC(=O)[C@H](Cc2c[nH]c3ncccc23)NC(=O)[C@H](C(C)C)NC(=O)[C@H](Cc2cccc(Cl)c2)N(C)C(=O)[C@H](C(C)C)NC(=O)[C@H](C)NC(=O)CSC[C@@H](C(=O)NCCOCCOCCOCCOCCC(N)=O)NC(=O)[C@H](Cc2ccc(O)cc2)N(C)C(=O)[C@H](Cc2cccc(C(=O)O)c2)NC(=O)[C@H](CCCCN2CCOCC2)NC(=O)[C@H](CCC(=O)NCCOCCOCCOCCOCCOCCOCCOCCOC)NC(=O)[C@H]([C@@H](C)CC)NC1=O [compound 21] ({CH2CO}-AV[NMePhe(3-Cl)]V[Trp(7-aza)]NYY(CH2CON(CH2CH2)2NCH2COOH)IIE(NH(CH2CH2O)8Me)[Nle(6-morpholino)][Phe(3-COOH)][NMeY]C[PEG4]-NH2; thioether N-15)
5 | 6.69 | 8.39 | CC[C@H](C)[C@@H]1NC(=O)[C@H](Cc2ccc(OCC(=O)N3CCN(CC(=O)O)CC3)cc2)NC(=O)[C@H](Cc2ccc(O)cc2)NC(=O)[C@H](CC(N)=O)NC(=O)[C@H](Cc2cn(CC(=O)O)c3ccccc23)NC(=O)[C@H](C(C)C)NC(=O)[C@H](Cc2cccc(Cl)c2)N(C)C(=O)[C@H](C(C)C)NC(=O)[C@H](C)NC(=O)CSC[C@@H](C(=O)NCCOCCOCCOCCOCCC(N)=O)NC(=O)[C@H](Cc2ccc(O)cc2)N(C)C(=O)[C@H](Cc2ccncc2)NC(=O)[C@H](CCCCN2CCOCC2)NC(=O)[C@H](CCC(=O)NCCOCCOCCOCCOCCOCCOCCOCCOC)NC(=O)[C@H]([C@@H](C)CC)NC1=O [compound 22]
6 | 7.48 | 8.46 | CC[C@H](C)[C@@H]1NC(=O)[C@H](Cc2ccc(OCC(=O)N3CCN(CC(=O)O)CC3)cc2)NC(=O)[C@H](Cc2ccc(O)cc2)NC(=O)[C@H](CC(N)=O)NC(=O)[C@H](Cc2c[nH]c3ncccc23)NC(=O)[C@H](C(C)C)NC(=O)[C@H](Cc2cccc(Cl)c2)N(C)C(=O)[C@H](C(C)C)NC(=O)[C@H](C)NC(=O)CSC[C@@H](C(=O)NCCOCCOCCOCCOCCC(N)=O)NC(=O)[C@H](Cc2ccc(O)cc2)N(C)C(=O)[C@H](Cc2ccncc2)NC(=O)[C@H](CCCCN2CCOCC2)NC(=O)[C@H](CCC(N)=O)NC(=O)[C@H]([C@@H](C)CC)NC1=O [compound 23]
7 | 7.57 | 8.70 | CC[C@H](C)[C@@H]1NC(=O)[C@H](Cc2ccc(OCC(=O)N3CCN(CC(=O)O)CC3)cc2)NC(=O)[C@H](Cc2ccc(O)cc2)NC(=O)[C@H](CC(N)=O)NC(=O)[C@H](Cc2c[nH]c3ncccc23)NC(=O)[C@H](C(C)C)NC(=O)[C@H](Cc2cccc(Cl)c2)N(C)C(=O)[C@H](C(C)C)NC(=O)[C@H](C)NC(=O)CSC[C@@H](C(=O)NCCOCCOCCOCCOCCC(N)=O)NC(=O)[C@H](Cc2ccc(O)cc2)N(C)C(=O)[C@H](Cc2cccc(C(=O)O)c2)NC(=O)[C@H](CCCCN2CCOCC2)NC(=O)[C@H](CCC(N)=O)NC(=O)[C@H]([C@@H](C)CC)NC1=O [compound 24] ({CH2CO}-AV[NMePhe(3-Cl)]V[Trp(7-aza)]NYY(CH2CON(CH2CH2)2NCH2COOH)IIQ[Nle(6-morpholino)][Phe(3-COOH)][NMeY]C[PEG4]-NH2; thioether N-15)
8 | 7.24 | 8.47 | CC[C@H](C)[C@@H]1NC(=O)[C@H](Cc2ccc(OCC(=O)N3CCN(CC(=O)O)CC3)cc2)NC(=O)[C@H](Cc2ccc(O)cc2)NC(=O)[C@H](CC(N)=O)NC(=O)[C@H](Cc2cn(CC(=O)O)c3ccccc23)NC(=O)[C@H](C(C)C)NC(=O)[C@H](Cc2cccc(Cl)c2)N(C)C(=O)[C@H](C(C)C)NC(=O)[C@H](C)NC(=O)CSC[C@@H](C(=O)NCCOCCOCCOCCOCCC(N)=O)NC(=O)[C@H](Cc2ccc(O)cc2)N(C)C(=O)[C@H](Cc2ccncc2)NC(=O)[C@H](CCCCN2CCOCC2)NC(=O)[C@H](CCC(N)=O)NC(=O)[C@H]([C@@H](C)CC)NC1=O [compound 25]
9 | 7.87 | 8.76 | CC[C@H](C)[C@@H]1NC(=O)[C@H](Cc2ccc(OCC(=O)NC[C@H](O)[C@@H](O)[C@H](O)[C@H](O)CO)cc2)NC(=O)[C@H](Cc2ccc(O)cc2)NC(=O)[C@H](CC(N)=O)NC(=O)[C@H](Cc2c[nH]c3ncccc23)NC(=O)[C@H](C(C)C)NC(=O)[C@H](Cc2cccc(Cl)c2)N(C)C(=O)[C@H](C(C)C)NC(=O)[C@H](C)NC(=O)CSC[C@@H](C(=O)NCCOCCOCCOCCOCCC(N)=O)NC(=O)[C@H](Cc2ccc(O)cc2)N(C)C(=O)[C@H](Cc2ccncc2)NC(=O)[C@H](CCCNC(=N)N)NC(=O)[C@H](CCC(=O)NC[C@H](O)[C@@H](O)[C@H](O)[C@H](O)CO)NC(=O)[C@H]([C@@H](C)CC)NC1=O [compound 26]
10 | 7.81 | 8.52 | CC[C@H](C)[C@@H]1NC(=O)[C@H](Cc2ccc(OCC(=O)NC[C@H](O)[C@@H](O)[C@H](O)[C@H](O)CO)cc2)NC(=O)[C@H](Cc2ccc(O)cc2)NC(=O)[C@H](CC(N)=O)NC(=O)[C@H](Cc2c[nH]c3ncccc23)NC(=O)[C@H](C(C)C)NC(=O)[C@H](Cc2cccc(Cl)c2)N(C)C(=O)[C@H](C(C)C)NC(=O)[C@H](C)NC(=O)CSC[C@@H](C(=O)NCCOCCOCCOCCOCCC(N)=O)NC(=O)[C@H](Cc2ccc(O)cc2)N(C)C(=O)[C@H](Cc2ccncc2)NC(=O)[C@H](CCCCN2CCOCC2)NC(=O)[C@H](CCC(=O)NC[C@H](O)[C@@H](O)[C@H](O)[C@H](O)CO)NC(=O)[C@H]([C@@H](C)CC)NC1=O [compound 27]
11 | 7.95 | 8.66 | CC[C@H](C)[C@@H]1NC(=O)[C@H](Cc2ccc(OCC(=O)NC[C@H](O)[C@@H](O)[C@H](O)[C@H](O)CO)cc2)NC(=O)[C@H](Cc2ccc(O)cc2)NC(=O)[C@H](CC(N)=O)NC(=O)[C@H](Cc2c[nH]c3ncccc23)NC(=O)[C@H](C(C)C)NC(=O)[C@H](Cc2cccc(Cl)c2)N(C)C(=O)[C@H](C(C)C)NC(=O)[C@H](C)NC(=O)CSC[C@@H](C(=O)NCCOCCOCCOCCOCCC(N)=O)NC(=O)[C@H](Cc2ccc(O)cc2)N(C)C(=O)[C@H](Cc2ccncc2)NC(=O)[C@H](CCCCN2CCOCC2)NC(=O)[C@H](CCC(N)=O)NC(=O)[C@H]([C@@H](C)CC)NC1=O [compound 29]
12 | 7.02 | 7.99 | CC[C@H](C)[C@@H]1NC(=O)[C@H](Cc2ccc(OCC(=O)N3CCN(CC(=O)O)CC3)cc2)NC(=O)[C@H](Cc2ccc(O)cc2)NC(=O)[C@H](CC(N)=O)NC(=O)[C@H](Cc2cn(CC(=O)O)c3ccccc23)NC(=O)[C@H](C(C)C)NC(=O)[C@H](Cc2cccc(Cl)c2)N(C)C(=O)[C@H](C(C)C)NC(=O)[C@H](C)NC(=O)CSC[C@@H](C(=O)NCCOCCOCCOCCOCCC(N)=O)NC(=O)[C@H](Cc2ccc(O)cc2)N(C)C(=O)[C@H](Cc2ccccc2)NC(=O)[C@H](CCCCN2CCOCC2)NC(=O)[C@H](CCC(=O)NCCOCCOCCOCCOCCOCCOCCOCCOC)NC(=O)[C@H]([C@@H](C)CC)NC1=O [compound 30] ({CH2CO}-AV[NMePhe(3-Cl)]V[Trp(1-CH2COOH)]NYY(CH2CON(CH2CH2)2NCH2COOH)IIE(NH(CH2CH2O)8Me)[Nle(6-morpholino)]F[NMeY]C[PEG4]-NH2; thioether N-15)
